Test results taken from patent US20010049389A1, “Arthropod-controlling composition” (priority 2000, published 2001).

What was measured:
Assay type in all cases: in vivo
[1] = test system: adult houseflies (Musca domestica); assay: Test Example 1: oil solution spray in glass chamber, knock-down of houseflies; conditions: 0.7 ml of 0.5% oil solution (Preparation example 9) sprayed in 0.34 m^3 glass chamber
Experimental: Ten (5 males and 5 females) adult houseflies (Musca domestica) were released in a glass chamber (70 cm cube, capacity: 0.34 m^3). Seven-tenth milliliter (0.7 ml) of the oil solution obtained in Preparation example 9 was applied into the chamber with a spray gun at a pressure of 0.9 kg/cm^2. Fifteen minutes after spraying, the knocked-down houseflies were counted. Reference compound was also tested.

[2] = test system: female adult common mosquitoes (Culex pipiens pallens); assay: Test Example 6: mosquito-coil in 0.34 m^3 chamber, knock-down of common mosquitoes; conditions: 1% mosquito-coil (Preparation example 18) burnt in 0.34 m^3 chamber, after 15 minutes
Experimental: On the bottom center of a cubic chamber having 70 cm of side (0.34 m^3), the mosquito-coil obtained in Preparation example 18 was set in a mosquito-coil holder. The mosquito-coil was ignited and the air in the chamber was stirred with a battery-type small electric fun. After that, the mosquito-coil and the electric fun were taken out and twenty female adult common mosquitoes (Culex pipiens pallens) were released into the chamber. After 15 minutes, the knock-down percentage was observed. Reference compound was also tested.

[3] = test system: adult cat fleas (Ctenocephalides felis); assay: Test Example 7: treated filter paper contact, adult cat fleas; conditions: three repetitions
Experimental: A designated amount of the Pyrone Compound was dissolved in acetone to give a 0.2 ml solution, which was uniformly treated on a filter paper having 3.8 cm in diameter, and air-dried for one hour. The filter paper was filled in a lid of a 200 ml glass bottle. Twenty adult cat fleas (Ctenocephalides felis) were released in the glass bottle, which was followed by covering with the lid. The glass bottle was upset for making the fleas contact with the filter paper, and kept at room temperature (25±3° C.) for one day. After that, the mortality was observed.

[4] = test system: cat flea (Ctenocephalides felis) eggs; assay: Test Example 8: treated filter paper, hatching of cat flea eggs
Experimental: A designated amount of the Pyrone Compound was dissolved in acetone to give a 0.2 ml solution, which was uniformly treated on a filter paper having 3.8 cm in diameter, and air-dried for one hour. The filter paper was set on an aluminum plate of 4 cm in diameter. Twenty cat flea (Ctenocephalides felis) eggs were put on the filter paper and the plate was kept at 25±3° C. and 70-90% of humidity in a plastic Petri dish. After 7 days, the hatching was observed. The tests were repeated three times and the results are given in […]

[5] = test system: adult copra mites (Tyrophagus putrescentiae); assay: Test Example 11: treated drawing paper, copra mites; conditions: drawing paper 800 mg/m^2, 25° C., 75% humidity, 24 hours
Experimental: On a black drawing paper having 38 mm in diameter, 0.2 ml of an acetone solution of the Pyrone Compound was added dropwise and air-dried. The treated dosage was 800 mg/m^2. The drawing paper was set on an aluminum plate having 38 mm in diameter and adhesives were put on the edge to prevent for tested mites to escape. About 30 adult copra mites (Tyrophagus putrescentiae) were released on the drawing paper and kept at 25° C. and 75% of humidity for 24 hours. After that, the mortality was observed. The result was 93%.

adult Porcellio scaber = assay: Test Example 13: oil-based aerosol spray, Porcellio scaber; conditions: about 450 mg of 1.0% oil-based aerosol sprayed, after 3 days
Experimental: According to Preparation examples 10-14, 1.0% oil-based aerosol of the Pyrone Compound was obtained. A container (8.75 cm in diameter, 7.5 cm in height, bottom covered 16-mesh iron net and inside wall painted butter for preventing tested pill bugs to escape) having 5 adult pill bugs (Armadillidium vulgare) therein was set on the bottom center of a glass cylinder having 20 cm in diameter and 60 cm in height. About 450 mg of the above oil-based aerosol were sprayed to the pill bugs from the upper part of the cylinder. After 30 seconds, the pill bugs were taken out and put into a clean plastic cup having soil and dead leaves therein. The pill bugs were given food and water and observed after 3 days. The tests were repeated twice. The mortality was 100%. Reference compound was also tested and the mortality was 40%.
The same procedure was performed as in Test example 12 except that 5 adult Porcellio scaber were used in place of Armadillidium vulgare. As a result, the mortality of the Pyrone Compound was 100%.

[6] = test system: whiteflies (Bemisia argentifolii); assay: Test Example 16: foliar spray on cabbage, whiteflies; conditions: 500 ppm dilution of flowable (Preparation example 7), 30 ml sprayed, after 6 days
Experimental: About 50 whiteflies (Bemisia argentifolii) were put on a cabagge leaf (in first-leaf stage) grown in a 90 ml plastic cup.
The formulation obtained in Preparation example 7 was diluted with water containing a spreading agent (Tokurino produced by Nihon Nohyaku Co.) to make the concentration of the Pyrone Compound to 500 ppm. Thirty milliliters (30 ml) of the dilution were sprayed to the cabbage (in first-leaf stage) and air-dried. The plastic pot was allowed to stand at 25±2° C. in a greenhouse. After 6 days, the mortality was 90% or more.

[7] = test system: first-instar larvae of summer fruit tortrix (Adoxophyes orana fasciata); assay: Test Example 19: treated artificial food, summer fruit tortrix larvae; conditions: 1 ml of 500 ppm dilution (Preparation example 2) in 6 g artificial food, after 6 days
Experimental: The formulation obtained in Preparation example 2 was diluted with water to make the concentration of the Pyrone Compound to 500 ppm. One milliter (1 ml) of the dilution was added to 6 g of artificial food (Insecta LF produced by Nihon Nosankogyo Co.) in plastic cup having 5.5 cm in diameter. Thirty first-instar larvae of summer fruit tortrix (Adoxophyes orana fasciata) were put into the plastic cup. After 6 days, the mortality was 90% or more.

[8] = test system: eggs of peach fruit moth (Carposina niponensis); assay: Test Example 20: treated artificial food, peach fruit moth eggs; conditions: 1 ml of 500 ppm dilution (Preparation example 2) in 6 g artificial food, after 10 days
Experimental: The formulation obtained in Preparation example 2 was diluted with water to make the concentration of the Pyrone Compound to 500 ppm. One milliliter (1 ml) of the dilution was added to 6 g of artificial food (Insecta LF produced by Nihon Nosankogyo Co.) in plastic cup having 5.5 cm in diameter. About 50 eggs of peach fruit moth (Carposina niponensis) laid on nylon cloth were put into the plastic cup. After 10 days, the ovicidal effect was 90% or more.

[9] = test system: adult German cockroaches (Blattella germanica); assay: Test Example 21: total-release aerosol in 28 m^3 chamber, German cockroaches; conditions: total-release aerosol (Preparation example 16) in 28 m^3 chamber, after 2 hours
Experimental: In a test chamber of 3 m×4 m and 2.3 m in height (28 m^3), two plastic cups were put at two corners, wherein each cup has ten (5 males and 5 females) adult German cockroaches (Blattella germanica) therein. The formulation obtained in Preparation example 16 was set in the center of the bottom and the contents of the aerosol were totally released. After 2 hours, the knock-down percentage was 100%.

## Cc1cc(O)c(C(=O)CC(C)C)c(=O)o1 [The Pyrone Compound]
[1]
  Knock-down percentage (%) 15 min. after spraying: 95%
[2]
  Knock-down percentage (%): 98%
[3]; dosage 200 mg/m^2, one day
  Mortality (%): 98%
[3]; dosage 800 mg/m^2, one day
  Mortality (%): 100%
[4]; dosage 5 mg/m^2, after 7 days
  Hatching ratio (%): 1.7%
[4]; dosage 25 mg/m^2, after 7 days
  Hatching ratio (%): 0%
[4]; dosage 125 mg/m^2, after 7 days
  Hatching ratio (%): 0%
[5]
  mortality: 93%
Adult Porcellio scaber
  mortality: 100%
[6]
  mortality: ≥ 90%
[7]
  mortality: ≥ 90%
[8]
  ovicidal effect: ≥ 90%
[9]
  knock-down percentage: 100%
